Data reported in patent US11638707B2, “Substituted amino triazoles useful as chitinase inhibitors” (Molecure S.A., priority 2019, dated 2023).
Structures can show the parent of a compound that is named as a salt.

How the values were obtained:
[1] = biological target: hERG channel (Homo sapiens (Human), UniProt Q12809); experiment: Human ERG channel binding assay (fluorescence polarization); settings: Table 1; tracer displacement, 4 h at room temperature
Summary of the method: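 Serially diluted compounds were incubated with a hERG-containing membrane fraction and a high-affinity red-shifted fluorescent hERG ligand. Displacement of the tracer was read by fluorescence polarization, and IC50 values were derived from the concentration-response curves.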

[2] = biological target: recombinant human CHIT1 (Homo sapiens (Human), UniProt Q13231); experiment: Human CHIT1 activity assay; assay type: biochemical; settings: recombinant human CHIT1, citrate buffer pH 5.2, 37° C., 60 minutes; read-out: hCHIT1, IC50
Summary of the method: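 Recombinant human CHIT1 hydrolysed 4-methylumbelliferyl β-D-N,N′,N″-triacetylchitotriose in citrate buffer, pH 5.2, for 60 minutes at 37° C in the dark with shaking. Released 4MU was read by fluorescence at 460 nm under basic pH; IC50 values were calculated from dilution series.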

[3] = biological target: recombinant human AMCase (Homo sapiens (Human), UniProt Q9BZP6); experiment: Human AMCase activity assay; assay type: biochemical; settings: citrate buffer pH 5.2, 37° C., 60 minutes, read-out: hAMCase, IC50
Summary of the method: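 Recombinant hAMCase hydrolysed 4-methylumbelliferyl β-D-N,N′-diacetylchitobioside in citrate buffer pH 5.2, run 60 min at 37 °C in the dark with shaking. Released 4MU fluorescence was read at 460 nm under basic pH, and IC50 values were fitted from the compound dilutions.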

Chain of recombinant human AMCase (Q9BZP6 22-476): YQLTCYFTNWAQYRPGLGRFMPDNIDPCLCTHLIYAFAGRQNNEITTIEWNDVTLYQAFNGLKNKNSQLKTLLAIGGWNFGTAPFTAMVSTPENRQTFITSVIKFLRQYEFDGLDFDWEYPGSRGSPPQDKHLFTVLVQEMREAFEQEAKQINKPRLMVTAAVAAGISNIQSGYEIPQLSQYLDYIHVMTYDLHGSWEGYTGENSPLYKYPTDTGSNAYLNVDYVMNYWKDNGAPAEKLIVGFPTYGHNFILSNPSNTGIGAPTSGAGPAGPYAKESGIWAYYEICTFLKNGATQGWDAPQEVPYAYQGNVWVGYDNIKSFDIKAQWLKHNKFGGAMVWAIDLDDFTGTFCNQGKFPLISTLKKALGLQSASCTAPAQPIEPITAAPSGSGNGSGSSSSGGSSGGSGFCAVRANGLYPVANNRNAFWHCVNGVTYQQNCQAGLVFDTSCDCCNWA
Chain of hERG channel (Q12809 whole entry): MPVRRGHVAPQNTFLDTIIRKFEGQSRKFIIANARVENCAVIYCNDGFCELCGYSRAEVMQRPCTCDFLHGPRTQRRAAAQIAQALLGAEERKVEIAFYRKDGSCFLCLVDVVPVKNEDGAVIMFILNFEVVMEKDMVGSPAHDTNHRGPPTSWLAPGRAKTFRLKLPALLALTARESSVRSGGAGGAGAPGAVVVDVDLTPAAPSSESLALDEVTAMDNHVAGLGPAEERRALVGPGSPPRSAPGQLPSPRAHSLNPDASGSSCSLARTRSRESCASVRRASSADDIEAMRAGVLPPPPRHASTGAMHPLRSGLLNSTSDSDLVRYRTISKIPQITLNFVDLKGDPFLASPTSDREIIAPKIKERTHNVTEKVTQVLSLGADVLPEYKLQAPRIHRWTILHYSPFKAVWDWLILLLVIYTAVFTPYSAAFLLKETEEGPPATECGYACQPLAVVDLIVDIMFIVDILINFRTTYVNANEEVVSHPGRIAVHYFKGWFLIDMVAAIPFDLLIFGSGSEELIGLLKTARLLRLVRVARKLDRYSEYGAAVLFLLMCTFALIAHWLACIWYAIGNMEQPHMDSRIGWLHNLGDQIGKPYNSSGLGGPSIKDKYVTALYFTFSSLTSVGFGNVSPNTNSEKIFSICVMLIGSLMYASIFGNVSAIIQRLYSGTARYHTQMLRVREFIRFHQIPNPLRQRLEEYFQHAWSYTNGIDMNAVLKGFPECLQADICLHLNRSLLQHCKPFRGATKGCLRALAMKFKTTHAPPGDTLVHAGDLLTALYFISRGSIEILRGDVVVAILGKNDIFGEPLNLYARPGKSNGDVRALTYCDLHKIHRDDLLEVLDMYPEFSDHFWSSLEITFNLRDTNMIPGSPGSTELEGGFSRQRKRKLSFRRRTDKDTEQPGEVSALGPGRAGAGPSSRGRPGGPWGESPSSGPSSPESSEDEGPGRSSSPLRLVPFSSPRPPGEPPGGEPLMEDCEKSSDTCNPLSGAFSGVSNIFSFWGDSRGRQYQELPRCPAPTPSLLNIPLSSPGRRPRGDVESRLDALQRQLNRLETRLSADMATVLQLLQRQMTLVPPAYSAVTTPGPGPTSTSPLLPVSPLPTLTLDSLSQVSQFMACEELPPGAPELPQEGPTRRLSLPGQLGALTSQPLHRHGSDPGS
Chain of recombinant human CHIT1 (Q13231 22-466): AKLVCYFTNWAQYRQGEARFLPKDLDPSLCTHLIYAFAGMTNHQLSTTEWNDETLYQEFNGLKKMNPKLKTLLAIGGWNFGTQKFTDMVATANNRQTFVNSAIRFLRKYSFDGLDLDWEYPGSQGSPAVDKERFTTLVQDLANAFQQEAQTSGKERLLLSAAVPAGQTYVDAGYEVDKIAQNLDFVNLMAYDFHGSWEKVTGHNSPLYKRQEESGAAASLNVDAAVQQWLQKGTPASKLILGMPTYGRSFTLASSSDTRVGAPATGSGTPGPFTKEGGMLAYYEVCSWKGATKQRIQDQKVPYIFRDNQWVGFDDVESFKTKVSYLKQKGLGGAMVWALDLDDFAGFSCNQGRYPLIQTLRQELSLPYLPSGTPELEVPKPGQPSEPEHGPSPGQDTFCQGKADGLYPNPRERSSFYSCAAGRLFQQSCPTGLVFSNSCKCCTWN

| SMILES | IC50 [1] [nM] | IC50 [2] [nM] | IC50 [3] [nM] |
| --- | --- | --- | --- |
| C[C@@H](O)[C@H]1CN(C2CCN(c3nnc(N)[nH]3)CC2)[C@@H](Cc2ccc(Cl)cc2)CO1 [Example 67, (R)-1-((2R,5S)-4-(1-(5-amino-4H-1,2,4-triazol-3-yl)piperidin-4-yl)-5-(4-chlorobenzyl)morpholin-2-yl)ethanol 2,2,2-trifluoroacetate] | > 100000 | < 100 | < 100 |
| CCC(O)(CC)[C@H]1CN(C2CCN(c3nnc(N)[nH]3)CC2)[C@@H](Cc2ccc(Cl)cc2)CO1 [Example 68, 3-((2R,5S)-4-(1-(5-amino-4H-1,2,4-triazol-3-yl)piperidin-4-yl)-5-(4-chlorobenzyl)-morpholin-2-yl)pentan-3-ol 2,2,2-trifluoroacetate] | 25000 to 100000 | < 100 | < 100 |
| CC(C)CNC(=O)[C@H]1CN(C2CCN(c3nnc(N)[nH]3)CC2)[C@@H](Cc2ccc(Cl)cc2)CO1 [Example 69, (2R,5S)-4-(1-(5-amino-4H-1,2,4-triazol-3-yl)piperidin-4-yl)-5-(4-chlorobenzyl)-N-isobutylmorpholine-2-carboxamide 2,2,2-trifluoroacetate] | 25000 to 100000 | < 100 | < 100 |
| Nc1nnc(N2CCC(N3C[C@@H]4COCCN4C[C@@H]3Cc3ccc(Cl)cc3)CC2)[nH]1 [Example 73, 5-(4-((7S,9aR)-7-(4-chlorobenzyl)hexahydropyrazino[2,1-c][1,4]oxazin-8(1H)-yl)piperidin-1-yl)-4H-1,2,4-triazol-3-amine hydrochloride] | 1000 to 10000 | 100 to 1000 | < 100 |
| C[C@H]1CN(C2CCN(c3nnc(N)[nH]3)CC2)[C@@H](Cc2ccc(Br)cc2)CO1 [Example 75, 5-(4-((2S,5S)-5-(4-bromobenzyl)-2-methylmorpholino)piperidin-1-yl)-4H-1,2,4-triazol-3-amine 2,2,2-trifluoroacetate] | 1000 to 10000 | < 100 | < 100 |
| Nc1nnc(N2CCC(N3C[C@H](CF)OC[C@@H]3Cc3ccc(Br)cc3)CC2)[nH]1 [Example 76, 5-(4-((2R,5S)-5-(4-bromobenzyl)-2-(fluoromethyl)morpholino)piperidin-1-yl)-4H-1,2,4-triazol-3-amine 2,2,2-trifluoroacetate] | > 100000 | < 100 | < 100 |
| Nc1nnc(N2CCC(N3C[C@@H]4CC(F)(F)CN4C[C@@H]3Cc3ccc(C(F)(F)F)cc3)CC2)[nH]1 [Example 78, 5-(4-((3S,8aS)-7,7-difluoro-3-(4-(trifluoromethyl)benzyl)hexahydropyrrolo[1,2-a]pyrazin-2(1H)-yl)piperidin-1-yl)-4H-1,2,4-triazol-3-amine 2,2,2-trifluoroacetate] | 10000 to 25000 | < 100 | < 100 |
